Laboratory results published in paper PMC10935026 (Acta Pharmaceutica Sinica. B, 2023).

What was measured:
GCGR = GCGR (Homo sapiens, UniProt P47871); assay: GCGR activation CRE-Luc reporter assay in vitro; type: cell-based
human serum albumin = human serum albumin (human, UniProt P02768 25-609); assay: ITC

Sequence of GCGR (P47871 26-477): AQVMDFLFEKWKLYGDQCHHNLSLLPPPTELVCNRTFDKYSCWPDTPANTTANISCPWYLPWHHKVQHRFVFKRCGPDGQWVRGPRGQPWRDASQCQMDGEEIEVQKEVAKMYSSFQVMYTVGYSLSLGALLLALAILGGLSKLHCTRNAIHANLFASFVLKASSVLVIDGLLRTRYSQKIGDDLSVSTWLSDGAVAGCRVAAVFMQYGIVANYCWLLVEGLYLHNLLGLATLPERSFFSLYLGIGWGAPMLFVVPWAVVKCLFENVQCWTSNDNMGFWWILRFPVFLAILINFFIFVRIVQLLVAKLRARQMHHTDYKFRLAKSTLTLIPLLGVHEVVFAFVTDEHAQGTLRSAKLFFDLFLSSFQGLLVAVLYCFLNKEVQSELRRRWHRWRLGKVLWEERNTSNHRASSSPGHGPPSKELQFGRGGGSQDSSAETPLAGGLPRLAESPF

Molecule	EC50 (GCGR) [µM]	Kd (human serum albumin) [µM]
CCCCCCCCCCCCCCCC(=O)N[C@@H](CCC(=O)NCCCC[C@H](NC(=O)[C@H](C)NC(=O)[C@H](C)NC(=O)[C@H](CCC(N)=O)NC(=O)CNC(=O)[C@H](CCC(=O)O)NC(=O)[C@H](CC(C)C)NC(=O)[C@H](Cc1ccc(O)cc1)NC(=O)[C@H](CO)NC(=O)[C@H](CO)NC(=O)[C@@H](NC(=O)[C@H](CC(=O)O)NC(=O)[C@H](CO)NC(=O)[C@@H](NC(=O)[C@H](Cc1ccccc1)NC(=O)[C@@H](NC(=O)CNC(=O)[C@H](CCC(=O)O)NC(=O)[C@H](C)NC(=O)[C@@H](N)Cc1cnc[nH]1)[C@@H](C)O)[C@@H](C)O)C(C)C)C(=O)N[C@@H](CCC(=O)O)C(=O)N[C@@H](Cc1ccccc1)C(=O)N[C@H](C(=O)N[C@@H](C)C(=O)N[C@@H](Cc1c[nH]c2ccccc12)C(=O)N[C@@H](CC(C)C)C(=O)N[C@H](C(=O)N[C@@H](CCCNC(=N)N)C(=O)NCC(=O)N[C@@H](CCCNC(=N)N)C(=O)NCC(=O)O)C(C)C)[C@@H](C)CC)C(=O)O [Liraglutide, liraglutide]	> 1	
GGSGSG [6-amino acid linker GGSGSG]		805
